Laboratory results published in US20190209548A1, “LINKED DIARYL COMPOUNDS WITH ANTICANCER PROPERTIES AND METHODS OF USING THE SAME” (University of Maryland, College Park, priority 2014, published 2019).

Legend:
27mer bcl-2 = test: ITC titration with bcl-2 G-quadruplex; assay type: binding
Method: (§1) Isothermal titration calorimetry. ITC experiments were performed using a VP-ITC calorimeter (GE-Healthcare). A typical ITC experiment involved as many as addition of 28 (10 μL) injections of as high as 1 mM ligand solutions into ˜1.5 mL of a dilute DNA solution (10 μM). Corrected titration curves were achieved by subtracting the blank titration data from the ITC-data for the ligand-DNA titrations. Corrected ITC titrations were fit with a nonlinear regression algorithm again using the CHASM ITC data analysis program developed in our laboratory.
(§2) DNA stock solutions were prepared by reconstituting the lyophilized oligonucleotide into 20 mM Tris buffer with a salt concentration of 100 mM KCl and a pH of 7.2. Approximately 2 mL of the oligonucleotide was dialyzed (1000 Mw cutoff membrane) against three changes of buffer solution (1 L, 24 h each) at 4° C. The concentrations of stock DNA solutions were verified using UV-Vis. G-Quadruplex DNAs were annealed by quickly heating to sample to 100° C., holding at 100° C. for ten minutes then slowly cooling to 5° C. over three hours period. Molar extinction coefficient of the DNAs were determined using a nearest-neighbor method for single stranded DNA. The extinction coefficients at 260 nm for the WT 27-mer bcl-2, WT 24-mer c-myc, WT 22-mer human telomere hTel sequences are 267,200 M^−1cm^−1, 248,100 M^−1cm^−1, and 228,500 M^−1cm^−1 respectively. The extinction coefficient at 260 nm for the 7 base pair hairpin with A2T2 (7 bp HP⋅AT) and the 7 base pair hairpin without A2T2 (7 bp HP) are 165,200 M^−1cm^−1 and 159,200 M^−1cm^−1 respectively. Cell culture grade water purchased from Corning was used for all experiments.

G-quadruplexes = test: Binding to G-quadruplexes, general statements; conditions: all of the tested G-quadruplexes, ITC, compare Tables 2 and 3
[1] = system: G-quadruplex DNAs (c-kit1, VEGF, bcl-2 2345 and TBA); test: UV-visible titration with G-quadruplex DNA; assay type: binding; conditions: ligand 10 μM, DNA 0-150 μM, 250 mM KCl, Tris-HCl pH 7.5
Method: (§3) UV titration studies of DNA with the triazene ligands, DMZ and Triazene-1. The molar extinction coefficients at 260 nm for 22-mer c-kit1, 18-mer VEGF, 23-mer bcl-2 2345, 15-mer TBA and 20-mer 8 bp AT are as follows 226,700 M^−1 cm^−1, 169,800 M^−1 cm^−1, 227,300 M^−1 cm^−1, 143,300 M^−1 cm^1 and 205,500 M^−1 cm^−1, respectively. The concentration of ligands used in this study was 10 μM and the DNA concentrations were 0, 0.25, 1.5, 3, 5, 6, 7, 8, 9, 10, 20, 30, 40, 50, 100, and 15 μM. The buffer contained 250 mM KCl, 50 mM Tris-HCl (at pH 7.5). The following quadruplex DNA were tested: c-kit1, VEGF, bcl-2 2345, and TBA. Duplex DNA (8 bp AT) was also tested. The sample was first heated up to 95° C. for 5 min without the ligand and then cooled down to room temperature in 15 min. The ligand was then added and the mixture was incubated at 4° C. for ˜12 h before recording the data. In case of Triazene-1 and Triazene-2, the sample mixture contained 1% DMSO.

8 bp AT duplex DNA = test: UV-visible titration with duplex DNA; assay type: binding; conditions: ligand 10 μM
Method: as §3

c-MYC G-quadruplex = test: FRET melting in competition with duplex DNA; assay type: binding; conditions: 1 μM ligand, 0.2 μM c-MYC, up to 500 equivalence of double-stranded DNA
Method: FRET DNA melting in competition with duplex DNA. FRET competition assay was performed by adding 2 μM, 20 μM and 100 μM double-stranded competitor 26ds DNA (5′-CAATCGGATCGAATTCGATCCGATTG-3′) (SEQ ID NO: 16) in the presence of 0.2 μM c-MYC G-quadruplex and 1 μM DMZ analogs. Both c-MYC G-quadruplex and 26ds DNA were diluted in 60 mM potassium cacodylate buffer (pH 7.2) and then annealed by heating at 85° C. for 10 min followed by cooling to room temperature in the heating block. Experiments were performed in triplicate.

MCR5A = test: WST-1 IC50 determination, normal fibroblast; assay type: cell-based, human; conditions: normal fibroblast cell, 72 hours
Method: Cell lines and culturing. The following human cell lines were purchased from ATCC (ATCC, Manassas, Va.): prostate cancer cells (PC-3), triple negative breast cancer cells (MDA-MB-231), ovarian cancer cells (OVCAR-3), normal bone marrow (NBM) and normal fibroblast cells (MCR5A). MDA-MB-231 cells were grown at 37° C. with 5% CO2 atmosphere with DMEM (Life technologies, Carlsbad, Calif.) supplemented with heat-inactivated 10% (V/V) fetal bovine serum. OVCAR-3 and PC-3 cells were grown at 37° C. with 5% CO2 atmosphere with RPMI (Life technologies, Carlsbad, Calif.) supplemented with heat-inactivated 10% (V/V) fetal bovine serum. Cell lines were grown and maintained according to ATCC recommendations.
IC50 determination. Cell lines were seeded into 96-well plates the afternoon prior to treatment. Cell seeding number was determined by growing cells in log phase growth during drug treatment. Approximately 18 hours later, compounds were semi-serially diluted in dimethyl sulfoxide (DMSO) and then growth medium, and added to cells. Plates were incubated for 72 hours prior to addition of WST-1 (Promega, Madison Wis.). Plates were read after 4 additional hours of incubation at 37° C. using a Bio-Tek Synergy HT plate reader (Bio-Tek, Winooski, Vt.). Data was analyzed, graphed and IC50s generated using GraphPad Prism Software (Graphpad, La Jolla, Calif.).

7bp HP = test: ITC titration with 7 bp hairpin without A2T2; assay type: binding; conditions: 20 mM Tris, 100 mM KCl, pH 7.2
Method: as §1
as §2, with “The extinction coefficient at 260 nm for the 7 base pair hairpin with A2T2 (7 bp HP⋅AT) and the 7 base pair hairpin without A2T2 (7 bp HP) are 165,200 M^−1cm^−1 and 159,200 M^−1cm^−1 respectively. Cell culture grade water purchased from Corning was used for all experiments.” left out

24mer WT c-myc = test: CD titration with c-myc G-quadruplex; assay type: binding; conditions: K+ Tris buffer
Method: (§4) Circular Dichroism (CD). CD titration experiments were performed with an Olis DSM-20 spectropolarimeter (Bogart, Ga.). All measurements were done at 25° C. using a 1 cm quartz cuvette and covering a spectral range of 220-420 nm. […] Stock solutions of the ligand were added in small amount to reach a molar ratio of 1:1, 3:1, 6:1, and 10:1 of ligand per equivalence of DNA.

hTel22 = test: CD titration with hTel22; assay type: binding, human; conditions: K+ Tris buffer
Method: as §4

[2] = system: B-DNAs containing the AT rich sequence; conditions: measured by NMR, Jenkins et al.; cited from earlier work
[3] = ITC, 20 mM Tris, 100 mM KCl, pH 7.2

N=C(N)c1ccc(NN=Nc2ccccc2)cc1 [DMZ1]
K1 (27mer bcl-2; [3]): 3500 M⁻¹
binding less than DMZ (G-quadruplexes): 4-5 orders of magnitude
shift of absorption spectrum upon DNA titration [1]: red shift
shift of absorption spectrum upon DNA titration (8 bp AT duplex DNA): no such shift was observed
effect of competitor double-stranded DNA on Tm of c-MYC (c-MYC G-quadruplex): did not affect the Tm of c-MYC

N=C(N)c1ccc(N=NNc2cccc(C#Cc3ccc(F)cc3)c2)cc1 [DMZ9]
IC50 (MCR5A; read-out: IC50 ± SD, MCR5A): 8.3 ± 4 µM

N=C(N)c1ccc(/N=N/Nc2ccccc2C#Cc2ccc(F)cc2)cc1 [DMZ13]
IC50 ± SD, MCR5A (MCR5A): NE (NE means not effective. Cell viability was the same or greater than 75% of the DMSO control at 20 μM compound concentration.)

N=C(N)c1ccc(/N=N/Nc2ccc(C(=N)N)cc2)cc1 [DMZ, Diminazene aceturate, reference compound]
K2 (7bp HP): 18000 M⁻¹
K1 (27mer bcl-2; [3]): 8.8e+08 M⁻¹
K2 (27mer bcl-2; [3]): 1.9e+06 M⁻¹
K3 (27mer bcl-2; [3]): 64000 M⁻¹
Kd (27mer bcl-2; from ITC data, as low as, read-out: dissociation constant): ~0.001 µM
shift of absorption spectrum upon DNA titration [1]: remarkable bathochromic shift (red shift) and a hypochromic effect
CD signal of G-quadruplex upon complexation (24mer WT c-myc): dramatically decreased
effect on structure of G-quadruplex (CD) (hTel22): very little effect on the structure
Kavg, binding affinity [2]: ≈ 1×10^6 M^−1
